Experimental data taken from patent publication US8153648B2, “Solid and crystalline dutasteride and processes for preparation thereof” (Gador S.A., priority 2008, dated 2012).

Key:
[1] = stability on exposure to different humidity conditions; assay type: physicochemical
[2] = intrinsic dissolving speed (VDI) study; assay type: physicochemical; settings: for change of crystalline or polymorphous structure during the dissolving assay: SDS 2% in hydrochloric acid 0.1N 225 ml, detected in the study chart
Method: These study has been carried out using Lauril Sodium Sulphate SDS 2% in hydrochloric acid 0.1N 225 ml. as dissolvent. At the established experimental conditions, changes were seen depending on the crystalline or polymorphous structure present.

C[C@]12C=CC(=O)NC1CCC1C2CC[C@]2(C)C(C(=O)Nc3cc(C(F)(F)F)ccc3C(F)(F)F)CCC12 (stereo partly drawn) [Crystalline Form II of dutasteride, 17β-N-[2,5-bis(trifluoromethyl)phenyl]carbamoyl-4-aza-5-α-androst-1-en-3-one]
changes in the solid Form with XR study ([1]; 66% and 75% HR, 60-day period): No changes were observed | stability when exposed to humidity ([1]; 66% and 75% HR, 60-day period): stable | water content (KF), final sample ([1]; after 60 days at 66% and 75% HR): 2.1 | water content (KF), initial sample ([1]; before humidity exposure): 1.9 | change of crystalline or polymorphous structure during the dissolving assay [2]: did not show any changes

C[C@]12C=CC(=O)NC1CCC1C2CC[C@]2(C)C(C(=O)Nc3cc(C(F)(F)F)ccc3C(F)(F)F)CCC12 (stereo partly drawn) [Crystalline Form III of dutasteride, 17β-N-[2,5-bis(trifluoromethyl)phenyl]carbamoyl-4-aza-5-α-androst-1-en-3-one]
intrinsic dissolving speed value (VDI) ([2]; Lauril Sodium Sulphate SDS 2% in hydrochloric acid 0.1N 225 ml as dissolvent): of the same magnitude of the crystalline forms described in the previous art

C[C@]12C=CC(=O)NC1CCC1C2CC[C@]2(C)C(C(=O)Nc3cc(C(F)(F)F)ccc3C(F)(F)F)CCC12 (stereo partly drawn) [Form I, 17β-N-[2,5-bis(trifluoromethyl)phenyl]carbamoyl-4-aza-5-α-androst-1-en-3-one]
change of crystalline or polymorphous structure during the dissolving assay [2]: transformation into Form III

C[C@]12C=CC(=O)NC1CCC1C2CC[C@]2(C)C(C(=O)Nc3cc(C(F)(F)F)ccc3C(F)(F)F)CCC12 (stereo partly drawn) [amorphous Form, 17β-N-[2,5-bis(trifluoromethyl)phenyl]carbamoyl-4-aza-5-α-androst-1-en-3-one]
change of crystalline or polymorphous structure during the dissolving assay [2]: did not show any changes
